This note sets out measurements from ChEMBL document CHEMBL3045091, “Synthesis and antimicrobial activities of some new 5-((3-(aryl)-1-phenyl-1H-pyrazol-4-yl)methylene)-3-phenylthiazolidine-2,4-diones” (2012).

The structures appear in SMILES notation. In brackets after ≈: the same amount, converted by molar mass. Activity calls are given as the source filed them.

Assay [1] has as its system Bacillus subtilis. Nature of the assay: Antibacterial activity against Bacillus subtilis MTCC 121 after 24 hr by macro dilution tube method. Format: functional. The conditions noted are these: MTCC 121, 24 h.
The subject of assay [2] is Pseudomonas aeruginosa. The following applies: MTCC 741, 4 mg/ml.
Description: (§1) Antibacterial activity against Pseudomonas aeruginosa MTCC 741 at 4 mg/ml after 24 hr by agar well diffusion method
Assay [3] concerns Staphylococcus aureus. Nature of the assay: Antibacterial activity against Staphylococcus aureus MTCC 96 at 4 mg/ml after 24 hr by agar well diffusion method. Format: functional. The following applies: MTCC 96, 24 h, read-out: DIZ.
The next assay has as its system Aspergillus flavus. The experiment in a line: Antifungal activity against Aspergillus flavus after 7 days by poisoned food technique. Type of assay: functional.
For a further assay, the system named is Aspergillus niger. The experiment in a line: Antifungal activity against Aspergillus niger after 7 days by poisoned food technique. Type of assay: functional.
The subject of assay [4] is Bacillus subtilis. Nature of the assay: Antibacterial activity against Bacillus subtilis MTCC 121 at 4 mg/ml after 24 hr by agar well diffusion method. The conditions noted are these: MTCC 121, 24 h, read-out: DIZ. Type of assay: functional. (In general: In agar diffusion tests the substance spreads into inoculated agar from a disc or well.)
In assay [5] the test system is Staphylococcus aureus. Nature of the assay: Antibacterial activity against Staphylococcus aureus MTCC 96 after 24 hr by macro dilution tube method. Format: functional. The conditions noted are these: MTCC 96, 24 h.
Another assay has as its system Escherichia coli. The experiment in a line: Antibacterial activity against Escherichia coli MTCC 1652 at 4 mg/ml after 24 hr by agar well diffusion method. Type of assay: functional, organism-based.
In assay [6] the test system is Pseudomonas aeruginosa. The experiment in a line: microbe, parasite or virus in culture. The conditions noted are these: MTCC 741, 24 h, read-out: DIZ.
Description: as §1

Regarding `O=C1S/C(=C\c2cn(-c3ccccc3)nc2-c2ccc(F)cc2)C(=O)N1c1ccccc1`, the MIC worked out at 32 µg/mL (≈ 72.5 µM) against Bacillus subtilis [1] and 128 µg/mL (≈ 290 µM) against Staphylococcus aureus [5]. For the same molecule, the DIZ result in the assay on Pseudomonas aeruginosa [2] was “inactive”. The zone of inhibition at 4000 µg/mL in the assay on Staphylococcus aureus [3] came to 19.3 mm; in the assay with Bacillus subtilis [4] it was 20.6 mm. Besides, the “growth inhibition (GI)” value in the assay on Aspergillus flavus and in the assay with Aspergillus niger was 55.5% in each case. In addition, the “diameter of the inhibition zone (DIZ)” value in the assay with Escherichia coli is “inactive”.

As for `OC(Cn1cncn1)(Cn1cncn1)c1ccc(F)cc1F` [FLUCONAZOLE], the “growth inhibition (GI)” value in the assay with Aspergillus flavus stood at 77.7%; with Aspergillus niger, 81.1%.

On to `O=C1S/C(=C\c2cn(-c3ccccc3)nc2-c2ccc(Br)cc2)C(=O)N1c1ccccc1`, for which the MIC in the assay with Bacillus subtilis [1] and against Staphylococcus aureus [5] was 32 µg/mL (≈ 63.7 µM) throughout. Also, the DIZ entry with Pseudomonas aeruginosa [2] is “inactive”. In addition, the figures for the zone of inhibition at 4000 µg/mL with Staphylococcus aureus [3] and with Bacillus subtilis [4] were 21.6 mm and 20.6 mm, respectively. In addition, the “growth inhibition (GI)” value with Aspergillus flavus was found to be 55.5%; in the assay with Aspergillus niger it was 38.8%. The “diameter of the inhibition zone (DIZ)” value with Escherichia coli was “inactive”.

Regarding `O=C(O)c1cn(C2CC2)c2cc(N3CCNCC3)c(F)cc2c1=O` [CIPROFLOXACIN], the zone of inhibition at 4000 µg/mL was found to be 22 mm in the assay on Pseudomonas aeruginosa [6], 26 mm with Staphylococcus aureus [3] and 24 mm with Bacillus subtilis [4]. The MIC with Bacillus subtilis [1] and with Staphylococcus aureus [5] was 5 µg/mL (≈ 15.1 µM) throughout.

With `COc1ccc(-c2nn(-c3ccccc3)cc2/C=C2\SC(=O)N(c3ccccc3)C2=O)cc1`, the MIC in the assay with Bacillus subtilis [1] and in the assay on Staphylococcus aureus [5] was 128 µg/mL (≈ 282 µM) throughout. Moreover, in the assay with Pseudomonas aeruginosa [2], the DIZ entry is “inactive”. Further, the zone of inhibition at 4000 µg/mL worked out at 18.6 mm in the assay with Staphylococcus aureus [3] and 16.6 mm in the assay with Bacillus subtilis [4]. The “growth inhibition (GI)” value with Aspergillus flavus is listed as 66.6%; with Aspergillus niger, 50%. In the assay on Escherichia coli, the “diameter of the inhibition zone (DIZ)” value is “inactive”.

Regarding `O=C1S/C(=C\c2cn(-c3ccccc3)nc2-c2ccc(Cl)cc2)C(=O)N1c1ccccc1`, the results for the MIC against Bacillus subtilis [1] and against Staphylococcus aureus [5] were 128 µg/mL (≈ 280 µM) and 64 µg/mL (≈ 140 µM), respectively. Besides, the DIZ result in the assay on Pseudomonas aeruginosa [2] was “inactive”. Further, the zone of inhibition at 4000 µg/mL with Staphylococcus aureus [3] came to 20.6 mm; with Bacillus subtilis [4], 18.3 mm. The “growth inhibition (GI)” value with Aspergillus flavus was 61.1%; in the assay with Aspergillus niger it was 55.5%. Further, in the assay on Escherichia coli, the “diameter of the inhibition zone (DIZ)” value was “inactive”.

In the case of `O=C1S/C(=C\c2cn(-c3ccccc3)nc2-c2cccs2)C(=O)N1c1ccccc1`, the MIC against Bacillus subtilis [1] and in the assay with Staphylococcus aureus [5] was 32 µg/mL (≈ 74.5 µM) throughout. The DIZ result with Pseudomonas aeruginosa [2] is “inactive”. Further, the zone of inhibition at 4000 µg/mL with Staphylococcus aureus [3] stood at 22.3 mm; in the assay with Bacillus subtilis [4], 21.6 mm. Besides, the “growth inhibition (GI)” value in the assay with Aspergillus flavus was 33.3%; with Aspergillus niger it was 50%. Moreover, in the assay with Escherichia coli, the “diameter of the inhibition zone (DIZ)” value was “inactive”.

For the molecule `O=C1S/C(=C\c2cn(-c3ccccc3)nc2-c2ccc([N+](=O)[O-])cc2)C(=O)N1c1ccccc1`, the results for the MIC with Bacillus subtilis [1] and against Staphylococcus aureus [5] were 128 µg/mL (≈ 273 µM) and 64 µg/mL (≈ 137 µM), respectively. Further, the DIZ entry in the assay with Pseudomonas aeruginosa [2] was “inactive”. For the same molecule, the values for the zone of inhibition at 4000 µg/mL in the assay with Staphylococcus aureus [3] and in the assay with Bacillus subtilis [4] were 20.6 mm and 18.3 mm, respectively. Also, the results for the “growth inhibition (GI)” value in the assay with Aspergillus flavus and in the assay with Aspergillus niger were 61.1% and 50%, respectively. Also, in the assay with Escherichia coli, the “diameter of the inhibition zone (DIZ)” value is “inactive”.

Turning to `Cc1ccc(-c2nn(-c3ccccc3)cc2/C=C2\SC(=O)N(c3ccccc3)C2=O)cc1`, the results for the MIC with Bacillus subtilis [1] and in the assay on Staphylococcus aureus [5] were 64 µg/mL (≈ 146 µM) and 128 µg/mL (≈ 293 µM), respectively. For the same molecule, in the assay with Pseudomonas aeruginosa [2], the DIZ entry was “inactive”. Further, the zone of inhibition at 4000 µg/mL worked out at 18.3 mm in the assay on Staphylococcus aureus [3] and 19.6 mm with Bacillus subtilis [4]. Further, the “growth inhibition (GI)” value in the assay on Aspergillus flavus is 50%; in the assay on Aspergillus niger, 44.4%. In addition, the “diameter of the inhibition zone (DIZ)” value with Escherichia coli was “inactive”.

On to `O=C1S/C(=C\c2cn(-c3ccccc3)nc2-c2ccccc2)C(=O)N1c1ccccc1`, for which the MIC came out at 64 µg/mL (≈ 151 µM) in the assay with Bacillus subtilis [1] and 128 µg/mL (≈ 302 µM) in the assay with Staphylococcus aureus [5]. In the assay with Pseudomonas aeruginosa [2], the DIZ result was “inactive”. The zone of inhibition at 4000 µg/mL in the assay with Staphylococcus aureus [3] turned out to be 18.6 mm; with Bacillus subtilis [4], 19.3 mm. For the same molecule, the “growth inhibition (GI)” value in the assay on Aspergillus flavus was found to be 50%; with Aspergillus niger, 55.5%. Also, in the assay with Escherichia coli, the “diameter of the inhibition zone (DIZ)” value is “inactive”.

As to `O=C1S/C(=C\c2cn(-c3ccccc3)nc2-c2ccc(O)cc2)C(=O)N1c1ccccc1`, the MIC with Bacillus subtilis [1] came out at 128 µg/mL (≈ 291 µM); in the assay with Staphylococcus aureus [5], 64 µg/mL (≈ 146 µM). The DIZ result in the assay with Pseudomonas aeruginosa [2] is “inactive”. The results for the zone of inhibition at 4000 µg/mL in the assay with Staphylococcus aureus [3] and with Bacillus subtilis [4] were 20.3 mm and 18.3 mm, respectively. Moreover, the entries for the “growth inhibition (GI)” value in the assay on Aspergillus flavus and with Aspergillus niger were 44.4% and 50%, respectively. Besides, in the assay on Escherichia coli, the “diameter of the inhibition zone (DIZ)” value is “inactive”.

The term MIC denotes the smallest concentration in the dilution series that meets the test's criterion for growth inhibition.
